# In paper PMC6547622 (ACS Omega, 2019):
# Key:
# Format in all cases: biochemical
# βPGM from L. lactis = βPGM from L. lactis (Lactococcus lactis subsp. lactis, UniProt P71447); experiment: IC50 determination of βPGM
# [1] = molecular target: T1, αPMM/PGM from P. aeruginosa (Pseudomonas aeruginosa, UniProt P26276); experiment: IC50 determination of αPMM/PGM
# T1 sequence (P26276 1-463): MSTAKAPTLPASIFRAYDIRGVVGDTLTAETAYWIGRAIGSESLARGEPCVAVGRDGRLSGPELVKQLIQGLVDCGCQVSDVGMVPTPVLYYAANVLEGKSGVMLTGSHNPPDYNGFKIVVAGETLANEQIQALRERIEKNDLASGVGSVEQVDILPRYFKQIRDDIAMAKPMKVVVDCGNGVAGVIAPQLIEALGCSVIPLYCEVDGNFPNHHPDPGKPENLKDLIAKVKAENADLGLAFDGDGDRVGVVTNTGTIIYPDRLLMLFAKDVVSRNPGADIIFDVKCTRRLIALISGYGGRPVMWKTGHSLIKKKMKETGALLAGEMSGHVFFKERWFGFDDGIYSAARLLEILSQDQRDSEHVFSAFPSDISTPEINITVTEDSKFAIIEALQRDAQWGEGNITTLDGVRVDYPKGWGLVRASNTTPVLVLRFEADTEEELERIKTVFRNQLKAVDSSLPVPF
# αPMM/PGM = molecular target: T2, αPMM/PGM (Pseudomonas aeruginosa, UniProt P26276); experiment: Michaelis Menten kinetics of αPMM/PGM; conditions: read-out: Km(αG1P), variable αG1P 0–200 µM
# T2 sequence (P26276 1-463): T1 sequence (P26276 1-463)
SMILES,IC50 (βPGM from L. lactis) [µM],Ki (βPGM from L. lactis) [µM],IC50 [1] [µM],Ki [1] [µM],Km (αPMM/PGM) [µM]
"C[C@]1(O)O[C@H](COP(=O)(O)O)[C@@H](O)[C@H](O)[C@H]1O [compound 1, 1-Deoxy-α-D-gluco-heptulose 7-Phosphate]",113 ± 3,57 ± 2,131 ± 1,65 ± 0.5,–
"O=P(O)(O)OC[C@H]1O[C@@](O)(CF)[C@H](O)[C@@H](O)[C@@H]1O [compound 2, 1-Deoxy-1-monofluoro-α-D-gluco-heptulose 7-Phosphate]",183 ± 14,92 ± 7,234 ± 29,117 ± 14,–
"O=P(O)(O)OC[C@H]1O[C@@](O)(C(F)F)[C@H](O)[C@@H](O)[C@@H]1O [compound 3, 1-Deoxy-1,1-difluoro-α-D-gluco-heptulose 7-Phosphate]",214 ± 11,107 ± 6,288 ± 37,144 ± 18,–
"O=P(O)(O)O[C@H]1O[C@H](CO)[C@@H](O)[C@H](O)[C@H]1O [αG1P, glucose 1-phosphate]",–,–,–,–,20
